PubChem BioAssay (NCI)
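1) Cells in 96-well plates. 2) Compound, 48 h, 5 concentrations. 3) Linear interpolation between surrounding doses. 4) Unreached endpoint = highest concentration. TGI marks complete inhibition of growth.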

Assays:
Assay in all cases: inhibition of tumour cell growth, NCI panel, 48 h
[1] = tested on: MDA-MB-231 breast
[2] = tested on: HCT-116 colon
[3] = tested on: HCT-15 colon
[4] = tested on: U251 CNS
[5] = tested on: EKVX NSCLC
[6] = tested on: SF-268 CNS
[7] = tested on: MCF7 breast
[8] = tested on: SN12C renal
[9] = tested on: KM12 colon
[10] = tested on: NCI-H522 lung
[11] = tested on: UACC-257 melanoma
[12] = tested on: 786-0 renal
[13] = tested on: A549 NSCLC
[14] = tested on: T-47D breast
[15] = tested on: LOX IMVI melanoma
[16] = tested on: SK-MEL-2 melanoma
[17] = tested on: MALME-3M melanoma
[18] = tested on: ACHN renal
[19] = tested on: NCI-H226 lung
[20] = tested on: MOLT-4 leukemia
[21] = tested on: HL-60(TB) leukemia
[22] = tested on: SK-MEL-28 melanoma
[23] = tested on: SF-539 CNS
[24] = tested on: CAKI-1 renal
[25] = tested on: A498 renal
[26] = tested on: MDA-MB-435
[27] = tested on: SW-620 colon
[28] = tested on: TK-10 renal
[29] = tested on: SR leukemia
[30] = tested on: K-562 leukemia
[31] = tested on: HT29 colon
[32] = tested on: MDA-N
[33] = tested on: RPMI-8226 leukemia
[34] = tested on: IGROV1 ovarian
[35] = tested on: SNB-19 CNS
[36] = tested on: CCRF-CEM leukemia
[37] = tested on: OVCAR-5 ovarian
[38] = tested on: SNB-75 CNS
[39] = tested on: OVCAR-3 ovarian
[40] = tested on: M14 melanoma
[41] = tested on: OVCAR-8 ovarian
[42] = tested on: DU-145 prostate
[43] = tested on: UO-31 renal
[44] = tested on: HCC-2998 colon
[45] = tested on: RXF 393 renal
[46] = tested on: PC-3 prostate
[47] = tested on: UACC-62 melanoma
[48] = tested on: HS 578T breast
[49] = tested on: HOP-62 NSCLC
[50] = tested on: NCI-H23 lung
[51] = tested on: SK-OV-3 ovarian
[52] = tested on: BT-549 breast
[53] = tested on: SK-MEL-5 melanoma
[54] = tested on: SF-295 CNS
[55] = tested on: COLO 205 colon
[56] = tested on: NCI-H460 lung
[57] = tested on: NCI/ADR-RES ovarian
[58] = tested on: OVCAR-4 ovarian
[59] = tested on: HOP-92 NSCLC

COc1cccc(C2c3cc4c(cc3OC(NNc3ccccc3)C2C)OCO4)c1OC (configuration not stated)
TGI [1]: > 100 µM
TGI [2]: 23.4 µM
TGI [3]: > 100 µM
TGI [4]: > 100 µM
TGI [5]: 32.3 µM
TGI [6]: > 100 µM
TGI [7]: 76.2 µM
TGI [8]: > 100 µM
TGI [9]: > 100 µM
TGI [10]: > 100 µM
TGI [11]: 71.5 µM
TGI [12]: > 100 µM
TGI [13]: > 100 µM
TGI [14]: > 100 µM
TGI [15]: > 100 µM
TGI [16]: > 100 µM
TGI [17]: 70.7 µM
TGI [18]: > 100 µM
TGI [19]: 74.4 µM
TGI [20]: 53.3 µM
TGI [21]: 17 µM
TGI [22]: > 100 µM
TGI [23]: 84.2 µM
TGI [24]: > 100 µM
TGI [25]: 88.1 µM
TGI [26]: > 100 µM
TGI [27]: > 100 µM
TGI [28]: 25.1 µM
TGI [29]: 18.8 µM
TGI [30]: 9.05 µM
TGI [31]: 58.2 µM
TGI [32]: > 100 µM
TGI [33]: > 100 µM
TGI [34]: > 100 µM
TGI [35]: > 100 µM
TGI [36]: 31.6 µM
TGI [37]: > 100 µM
TGI [38]: > 100 µM
TGI [39]: 24 µM
TGI [40]: > 100 µM
TGI [41]: > 100 µM
TGI [42]: 68.7 µM
TGI [43]: > 100 µM
TGI [44]: 6.79 µM
TGI [45]: 44.1 µM
TGI [46]: 46.6 µM
TGI [47]: > 100 µM
TGI [48]: 80.1 µM
TGI [49]: > 100 µM
TGI [50]: 96.9 µM
TGI [51]: > 100 µM
TGI [52]: 67.2 µM
TGI [53]: > 100 µM
TGI [54]: 4.24 µM
TGI [55]: 15.7 µM
TGI [56]: > 100 µM

COc1ccc(N2C(=O)C3c4[nH]c5c(C)cccc5c4C4CCC(c5ccccc5)CC4C3C2=O)cc1 (configuration not stated)
TGI [1]: 78.2 µM
TGI [2]: > 100 µM
TGI [3]: > 100 µM
TGI [5]: 63.4 µM
TGI [6]: 20.3 µM
TGI [7]: 21.7 µM
TGI [8]: 59.5 µM
TGI [9]: 42.2 µM
TGI [10]: 16.7 µM
TGI [11]: 51.2 µM
TGI [12]: > 100 µM
TGI [13]: 24.2 µM
TGI [14]: 28.6 µM
TGI [15]: > 100 µM
TGI [16]: 60.8 µM
TGI [18]: 43.5 µM
TGI [57]: 66.4 µM
TGI [19]: 46.3 µM
TGI [22]: 27.9 µM
TGI [24]: 39.3 µM
TGI [25]: 39.1 µM
TGI [26]: 34.3 µM
TGI [27]: 40.5 µM
TGI [28]: > 100 µM
TGI [31]: 21.3 µM
TGI [32]: 34.3 µM
TGI [33]: 30.4 µM
TGI [34]: 33.5 µM
TGI [35]: 76.3 µM
TGI [36]: 4.41 µM
TGI [37]: 28.8 µM
TGI [38]: 24.4 µM
TGI [39]: 60.4 µM
TGI [40]: 26 µM
TGI [41]: 36.8 µM
TGI [42]: 31.1 µM
TGI [43]: 43.3 µM
TGI [58]: 26.6 µM
TGI [46]: 28.2 µM
TGI [48]: 28.6 µM
TGI [59]: 41 µM
TGI [49]: 27.3 µM
TGI [50]: 67.7 µM
TGI [51]: 34 µM
TGI [52]: 47.8 µM
TGI [54]: 40.2 µM
TGI [55]: 83.9 µM
TGI [56]: 18.2 µM

CC(=O)OCC12C(OC(C)=O)C(=O)C3C(OC(C)=O)C14OC3(C)COC(=O)c1cccnc1C(C)C(C)C(=O)OC(C(OC(C)=O)C2OC(C)=O)C4(C)O (configuration not stated)
TGI [1]: > 100 µM
TGI [2]: > 100 µM
TGI [3]: > 100 µM
TGI [4]: > 100 µM
TGI [5]: > 100 µM
TGI [6]: > 100 µM
TGI [7]: > 100 µM
TGI [8]: > 100 µM
TGI [9]: > 100 µM
TGI [10]: > 100 µM
TGI [11]: > 100 µM
TGI [12]: > 100 µM
TGI [13]: > 100 µM
TGI [14]: > 100 µM
TGI [15]: > 100 µM
TGI [16]: > 100 µM
TGI [17]: > 100 µM
TGI [18]: > 100 µM
TGI [19]: > 100 µM
TGI [20]: > 100 µM
TGI [21]: > 100 µM
TGI [22]: > 100 µM
TGI [23]: > 100 µM
TGI [24]: > 100 µM
TGI [25]: > 100 µM
TGI [26]: > 100 µM
TGI [27]: > 100 µM
TGI [28]: > 100 µM
TGI [29]: > 100 µM
TGI [30]: > 100 µM
TGI [31]: > 100 µM
TGI [32]: > 100 µM
TGI [33]: > 100 µM
TGI [34]: > 100 µM
TGI [35]: > 100 µM
TGI [36]: > 100 µM
TGI [37]: > 100 µM
TGI [38]: > 100 µM
TGI [39]: > 100 µM
TGI [40]: > 100 µM
TGI [41]: > 100 µM
TGI [42]: > 100 µM
TGI [43]: > 100 µM
TGI [44]: > 100 µM
TGI [45]: > 100 µM
TGI [58]: > 100 µM
TGI [46]: > 100 µM
TGI [47]: > 100 µM
TGI [48]: > 100 µM
TGI [59]: > 100 µM
TGI [49]: > 100 µM
TGI [50]: > 100 µM
TGI [51]: > 100 µM
TGI [52]: > 100 µM
TGI [53]: > 100 µM
TGI [54]: > 100 µM
TGI [55]: > 100 µM
TGI [56]: > 100 µM
